Results from paper PMC11538636, “Electro‐Driven Multi‐Enzymatic Cascade Conversion of CO2 to Ethylene Glycol in Nano‐Reactor” (Advanced Science, 2024).

Columns and labels:
BmFADH = target: T1, BmFADH (Burkholderia multivorans, UniProt A0A0H3KP42); experiment: NADH consumption at […] nm; type: biochemical; conditions: 1 mM NADH, 5 mM NaMeO2, 50 mM phosphate pH 7.5, 2 h
T1 construct: gene fdhA2; recombinant in E. coli BL21(DE3), pETDuet, C-terminal His-tag; Zn2+ dependent
T1 sequence (A0A0H3KP42 1-398): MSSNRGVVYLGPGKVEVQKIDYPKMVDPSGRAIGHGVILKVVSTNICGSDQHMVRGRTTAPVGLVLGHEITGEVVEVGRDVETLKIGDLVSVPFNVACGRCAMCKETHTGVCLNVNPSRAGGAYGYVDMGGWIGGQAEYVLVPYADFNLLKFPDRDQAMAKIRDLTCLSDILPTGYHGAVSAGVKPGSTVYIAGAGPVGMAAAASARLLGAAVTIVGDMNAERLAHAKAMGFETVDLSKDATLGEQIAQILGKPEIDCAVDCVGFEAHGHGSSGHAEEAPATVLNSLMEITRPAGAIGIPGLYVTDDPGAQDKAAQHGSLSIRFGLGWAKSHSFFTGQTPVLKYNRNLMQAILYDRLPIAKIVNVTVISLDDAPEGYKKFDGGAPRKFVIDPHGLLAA

GoADH = tested on: T2, GoADH; experiment: steady-state kinetics, Michaelis-Menten fit; type: biochemical, Gluconobacter oxydans; conditions: NADH co-substrate; free enzyme; glycolaldehyde reduction
T2 construct: gene adh; recombinant in E. coli BL21(DE3), pETDuet, C-terminal His-tag; codon-optimized gene; Zn2+ dependent

Km (GoADH) | Compound | NADH consumption at 340 nm (BmFADH)
– | NC(=O)C1=CN([C@@H]2O[C@H](COP(=O)(O)OP(=O)(O)OC[C@H]3O[C@@H](n4cnc5c(N)ncnc54)[C@H](O)[C@@H]3O)[C@@H](O)[C@H]2O)C=CC1 [NADH] | activity of PaFDH, BmFADH, and GoADH was determined by measuring the consumed NADH
432 µM | O=CCO [glycolaldehyde] | –
